From patent US6602274B1, “Targeted transcutaneous cancer therapy” (Light Sciences Corporation, priority 1999, dated 2003)

Legend:
[1] = systemic administration, clinical use; cited from earlier work
[2] = system: colon carcinoma tumor mass; experiment: Photodynamic therapy of a solid tumor with implanted LED light source probes after oral ALA; format: in vivo, human
Excerpt: A patient in the terminal phase of recurrent malignant colon cancer presented with a protruding colon carcinoma tumor mass of approximately 500 grams and approximately 13 cm in diameter, which extended through the patient's dermis. Due to the advanced state of the patient's disease and due to the highly vascularized nature of this tumor mass, resection was not feasible. Further, this large tumor mass presented a significant amount of pain and discomfort to the patient, as well as greatly impairing the patient's ability to lie flat.
Six separate light source probes, each including a linear array of LEDs, were surgically implanted in this large human tumor using standard surgical procedures. An intensity of about 25-30 mW of light from each light source probe (650 nm peak wavelength) was delivered to the tumor for 40 hours following oral administration to the patient of a single dose of an (ALA) photosensitizer agent (60 mg/kg). However, after 18 hours, two of the light source probes became unseated from the tumor mass and were disconnected from the electrical power supply used to energize the LEDs on each probe. The total fluence delivered to the tumor bed during this single extended duration treatment was in excess of 20,000 Joules. […] The extent of this PDT induced necrotic effect in a large volume of tumor tissue was totally unexpected and has not been described before in any PDT studies in subjects in vivo or clinically. Over the course of four weeks following PDT, the necrotic tumor tissue was debrided from the patient resulting in a reduction of approximately 500 grams of tumor tissue.
The fluence rate employed in this Example represented about 150-180 mW/cm^2, with a total fluence more than 20,000 Joules. The preferable fluence rate contemplated more broadly by the present invention is between about 5 mW/cm^2 and about 100 mW/cm^2, more preferably, between about 10 mW/cm^2 and about 75 mW/cm^2, and most preferably, between about 15 mW/cm^2 and about 50 mW/cm^2.

[3] = system: virus-infected T cells; settings: virus-infected T cells treated with BPD, exposed to light; Blood Cells 18:129-40 (1992); cited from earlier work

For CCOC(=O)C1=Cc2c3nc(cc4nc(cc5[n-]c(cc6[n-]c2c(C)c6CC)c(C)c5CC)C(C)=C4CC)[C@@H](C)[C@]13CC.[Cl-].[Cl-].[Sn] (racemic) [PURLYTIN], the “duration of general dermal photosensitivity / sensitization of the skin to light” value [1] is given as “at least several weeks”.
With NCC(=O)CCC(=O)O [ALA, aminolevulinic acid] the “Extensive tumor necrosis, radius around each of the light source probes” value ([2]; one patient, single oral dose 60 mg/kg, 650 nm light, 40 hours of PDT, total fluence in excess of 20,000 Joules) was “up to 5 cm”, the “collateral damage to surrounding normal tissue” value ([2]; one patient, single oral dose 60 mg/kg, after 40 hours of PDT) was “no collateral damage” and the “reduction of tumor tissue (necrotic tumor tissue debrided)” value ([2]; over the course of four weeks following PDT, tumor mass of approximately 500 grams) was “approximately 500 grams”.
For Oc1cccc(-c2c3nc(c(-c4cccc(O)c4)c4ccc([nH]4)c(-c4cccc(O)c4)c4nc(c(-c5cccc(O)c5)c5ccc2[nH]5)CC4)C=C3)c1 [FOSCAN], the “duration of general dermal photosensitivity / sensitization of the skin to light” value [1] is listed as “at least several weeks”.
In the case of benzoporphyrin derivatives [BPD], the “effect on T cell membrane after exposure to light” value [3] is given as “holes developed in the T cell membrane and increased in size until the membrane completely decomposed”.
In the case of sodium porfimer [PHOTOPHRIN], the “duration of general dermal photosensitivity / sensitization of the skin to light” value [1] is given as “up to six weeks”.
